Experimental data published in ChEMBL document CHEMBL1201862, “PubChem BioAssay data set” (2004).
The source made the active and inactive calls.

What was measured:
[1] = AlphaScreen signal interference compounds, dose response, artefact control for ARNT-TACC3 interaction inhibitor project, biochemical, luminescence, cherry-pick (AID 651705); format: functional;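 also: AlphaScreen bead proximity signal that flags compounds interfering with the detection technology; potency reflects signal decrease which marks the compound as an assay artifact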
Interleukin-8 [2] = target: T1, Interleukin-8 (Homo sapiens, UniProt P10145); assay: Dose Response confirmation of uHTS small molecule hits for cystic fibrosis induced NFkb Inhibitors in a TNFa-induced IL8 counterscreen.; format: functional; conditions: read-out: IC50_Mean
Interleukin-8 [3] = target: T1, Interleukin-8; assay: Dose Response confirmation of uHTS small molecule hits for cystic fibrosis induced NFkb Inhibitors in a PAF-induced IL8 counterscreen.; format: functional; conditions: read-out: IC50_Mean
[4] = NIH-3T3 fibroblast cytotoxicity, dose response, cytotoxicity control, cell-based, fluorescence, Alamar Blue, secondary assay (AID 2327); format: functional;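 also: NIH-3T3 mouse fibroblasts cultured with fluconazole at 8 µg/mL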
[5] = C. albicans growth with fluconazole, confirmation, fluorescence, retest (AID 2467); format: functional, cell-based
[6] = target: T2, Multidrug resistance protein CDR2 (Candida albicans (strain SC5314 / ATCC MYA-2876) (Yeast), UniProt P78595); assay: CaCDR2 efflux pump inhibitors in yeast, dose response, S. cerevisiae AD1-8u, singleplex, Cherry Pick2 set (AID 623994); format: functional; conditions: read-out: EC50_MICROM
T2 sequence (P78595 whole entry): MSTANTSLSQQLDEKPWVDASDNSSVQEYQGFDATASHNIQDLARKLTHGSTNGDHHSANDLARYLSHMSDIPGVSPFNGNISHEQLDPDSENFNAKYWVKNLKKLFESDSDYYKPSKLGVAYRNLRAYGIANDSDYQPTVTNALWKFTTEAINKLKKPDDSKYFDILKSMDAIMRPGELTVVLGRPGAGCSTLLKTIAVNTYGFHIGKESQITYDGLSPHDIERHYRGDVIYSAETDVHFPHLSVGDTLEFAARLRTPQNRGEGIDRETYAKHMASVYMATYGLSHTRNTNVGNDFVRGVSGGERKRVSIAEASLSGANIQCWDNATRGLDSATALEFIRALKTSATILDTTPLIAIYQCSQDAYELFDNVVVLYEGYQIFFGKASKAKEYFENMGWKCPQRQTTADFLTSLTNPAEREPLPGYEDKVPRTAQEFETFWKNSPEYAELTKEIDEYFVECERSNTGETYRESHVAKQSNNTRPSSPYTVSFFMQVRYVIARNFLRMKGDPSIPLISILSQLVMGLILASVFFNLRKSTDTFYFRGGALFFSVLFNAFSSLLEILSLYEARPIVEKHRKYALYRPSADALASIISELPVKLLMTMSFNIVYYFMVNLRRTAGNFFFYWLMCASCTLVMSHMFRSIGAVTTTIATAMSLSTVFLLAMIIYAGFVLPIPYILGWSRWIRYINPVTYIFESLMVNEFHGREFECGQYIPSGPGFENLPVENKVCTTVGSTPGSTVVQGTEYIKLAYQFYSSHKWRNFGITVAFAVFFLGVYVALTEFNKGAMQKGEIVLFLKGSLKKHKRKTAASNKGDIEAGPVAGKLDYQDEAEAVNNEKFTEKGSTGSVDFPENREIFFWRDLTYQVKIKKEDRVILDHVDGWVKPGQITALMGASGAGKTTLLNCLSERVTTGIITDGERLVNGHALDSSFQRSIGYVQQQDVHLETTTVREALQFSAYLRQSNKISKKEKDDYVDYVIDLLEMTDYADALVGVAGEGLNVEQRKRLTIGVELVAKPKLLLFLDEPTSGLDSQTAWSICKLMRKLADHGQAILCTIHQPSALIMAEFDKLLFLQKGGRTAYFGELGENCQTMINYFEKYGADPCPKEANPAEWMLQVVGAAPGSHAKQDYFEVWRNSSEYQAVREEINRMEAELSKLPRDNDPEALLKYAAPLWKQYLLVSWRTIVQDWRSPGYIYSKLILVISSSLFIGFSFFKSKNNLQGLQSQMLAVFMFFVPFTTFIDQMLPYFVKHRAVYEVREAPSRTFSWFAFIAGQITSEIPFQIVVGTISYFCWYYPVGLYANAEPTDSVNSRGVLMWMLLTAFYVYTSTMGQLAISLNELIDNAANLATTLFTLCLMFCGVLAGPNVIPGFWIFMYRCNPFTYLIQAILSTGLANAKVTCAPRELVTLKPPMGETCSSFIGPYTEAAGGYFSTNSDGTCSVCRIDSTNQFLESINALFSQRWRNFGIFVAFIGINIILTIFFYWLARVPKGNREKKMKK

cells = format: functional
INS1 = assay: beta cell apoptosis inhibitors, cytokine rescue, dose response, luminescence, retest (AID 449756); format: functional, cell-based; conditions: Rattus norvegicus;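 also: cell death triggered by IL-1 beta plus TNF-alpha plus IFN-gamma mixture; protective hits raise ATP signal compared with cytokine alone wells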
[7] = target: T3, Ubiquitin-conjugating enzyme E2 N (Homo sapiens, UniProt P61088); format: functional;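 also: Dose-response confirmation in a TR-FRET assay detecting UBC13-driven polyubiquitin chain formation, inhibition measured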
T3 sequence (P61088 whole entry): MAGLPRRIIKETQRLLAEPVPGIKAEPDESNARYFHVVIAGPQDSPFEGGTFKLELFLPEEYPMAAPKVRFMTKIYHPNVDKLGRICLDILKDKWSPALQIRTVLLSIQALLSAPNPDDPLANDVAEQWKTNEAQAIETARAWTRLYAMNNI

[8] = THP-1 cell cytotoxicity, dose response, cytotoxicity control for non-replicating M. tuberculosis project (AID 489025); format: functional
[9] = target: Adenosylmethionine-8-amino-7-oxononanoate aminotransferase (Mycobacterium tuberculosis, UniProt P9WQ81); assay: Mycobacterium tuberculosis BioA enzyme inhibitor Measured in Biochemical System Using Plate Reader - 2163-02_Inhibitor_Dose_CherryPick_Activity.; format: functional, Mycobacterium tuberculosis UT205
HEK293 [10] = assay: cells; format: functional, cell-based; conditions: Homo sapiens
[11] = target: Nucleotide-binding oligomerization domain-containing protein 2 (Homo sapiens, UniProt Q9HC29); assay: NOD2 signaling inhibitors, cell-based, luminescence, uHTS, HEK293 (AID 1566); format: functional
HEK293 [12] = assay: NOD1 signaling inhibitors, primary screen, cell-based, luminescence, uHTS (AID 1578); format: functional; conditions: Homo sapiens
HEK293 [13] = assay: cells; format: functional, cell-based; conditions: Homo sapiens; remark: listed apart in the source
HEK293 [14] = assay: NOD2 signaling inhibitors in MDP-stimulated cells, cell-based, uHTS, luminescence (AID 2001); format: functional; conditions: Homo sapiens
HEK293 [15] = assay: cells; format: functional, cell-based; conditions: Homo sapiens; remark: listed apart in the source
[16] = target: Mitochondrial peptide methionine sulfoxide reductase (Bos taurus, UniProt P54149); assay: Absorbance-based biochemical high throughput dose response assay for activators of Methionine sulfoxide reductase A (MsrA).; format: functional
[17] = target: T4, Sentrin-specific protease 1 (Homo sapiens, UniProt Q9P0U3); assay: Dose response confirmation of small molecule inhibitors of the catalytic domain of the SUMO protease, SENP1 in a FRET assay.; format: functional; conditions: read-out: IC50_Mean
[18] = target: T4, Sentrin-specific protease 1; assay: potency of human SENP1 inhibitors, dose response, biochemical, kinetic FRET (AID 651697); format: functional; conditions: read-out: IC50_Mean
Protein Wnt-3a = Protein Wnt-3a (Mus musculus, UniProt P27467); assay: Wnt3a-driven reporter signaling inhibition, dose response, selectivity assay for Gli-SUFU antagonist project, Wnt-LIGHT cells, luminescence (AID 651570); format: functional; conditions: read-out: IC50_Mean;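 also: Wnt-LIGHT reporter cells stimulated with conditioned medium from Wnt3a-producing cells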
[19] = target: Opioid receptors; mu & delta (Homo sapiens, UniProt P41143+P35372); assay: agonists of MOR-DOR heterodimerization, dose response, counter-screen for MC4R biased agonist project, cell-based, luminescence (AID 602264); format: functional
Melanocortin receptor 4 = Melanocortin receptor 4 (Homo sapiens, UniProt P32245); format: functional, cell-based;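 also: Cell-based assay with luminescence read-out, confirmatory dose-response testing for agonist activity of biased ligands at MC4R; human U2OS cells with tagged receptor and beta-arrestin; potency of agonists that increase receptor coupling to beta-arrestin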
[20] = target: T5, Apoptotic protease-activating factor 1 (Homo sapiens, UniProt O14727); assay: SAR analysis of small molecule Activators of Apaf-1 in a Fluorescent assay.; format: functional; conditions: read-out: EC50_Mean;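 also: caspase-3 cleavage of fluorogenic Rh110 DEVD substrate downstream of apoptosome activation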
T5 sequence (O14727 whole entry): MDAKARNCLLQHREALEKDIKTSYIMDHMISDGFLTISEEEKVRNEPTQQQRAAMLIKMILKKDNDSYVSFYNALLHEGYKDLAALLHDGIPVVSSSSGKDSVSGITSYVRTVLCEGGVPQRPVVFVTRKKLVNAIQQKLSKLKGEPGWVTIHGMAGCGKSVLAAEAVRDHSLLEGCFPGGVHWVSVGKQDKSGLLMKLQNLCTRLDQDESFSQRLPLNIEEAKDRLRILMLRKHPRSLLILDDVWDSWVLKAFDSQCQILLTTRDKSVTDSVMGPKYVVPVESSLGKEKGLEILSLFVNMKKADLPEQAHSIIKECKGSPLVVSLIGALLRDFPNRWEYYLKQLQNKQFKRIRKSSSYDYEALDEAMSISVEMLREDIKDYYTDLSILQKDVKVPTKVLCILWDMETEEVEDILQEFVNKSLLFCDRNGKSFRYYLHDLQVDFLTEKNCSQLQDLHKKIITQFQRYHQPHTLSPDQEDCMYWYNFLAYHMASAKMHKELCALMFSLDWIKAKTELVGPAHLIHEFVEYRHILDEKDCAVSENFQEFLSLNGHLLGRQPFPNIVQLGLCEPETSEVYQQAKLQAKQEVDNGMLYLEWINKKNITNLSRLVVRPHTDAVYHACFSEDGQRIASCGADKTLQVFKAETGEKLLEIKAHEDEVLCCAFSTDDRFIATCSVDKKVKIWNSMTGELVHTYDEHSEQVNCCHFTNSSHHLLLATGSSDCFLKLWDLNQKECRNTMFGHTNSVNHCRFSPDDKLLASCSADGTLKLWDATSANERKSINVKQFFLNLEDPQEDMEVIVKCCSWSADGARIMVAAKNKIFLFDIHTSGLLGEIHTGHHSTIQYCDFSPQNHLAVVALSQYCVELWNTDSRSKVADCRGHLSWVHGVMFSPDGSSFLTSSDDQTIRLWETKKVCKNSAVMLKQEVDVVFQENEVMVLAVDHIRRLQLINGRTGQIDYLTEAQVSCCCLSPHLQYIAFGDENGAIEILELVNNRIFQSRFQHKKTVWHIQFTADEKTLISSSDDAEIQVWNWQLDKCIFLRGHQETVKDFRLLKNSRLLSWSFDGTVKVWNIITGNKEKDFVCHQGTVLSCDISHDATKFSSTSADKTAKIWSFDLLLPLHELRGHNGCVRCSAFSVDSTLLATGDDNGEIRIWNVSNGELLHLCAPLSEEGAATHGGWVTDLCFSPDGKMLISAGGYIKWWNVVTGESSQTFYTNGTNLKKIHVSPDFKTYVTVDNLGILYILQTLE

[21] = target: T6, ATP-dependent translocase ABCB1 (Homo sapiens, UniProt P08183); assay: ABCB1 efflux inhibitor potency, dose response, Jurkat-DNR cells, JC-1, flow cytometry, set 2 (AID 504569); format: functional; conditions: read-out: EC50_MICROM_;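 also: potency of pump inhibitors that raise cellular JC-1 green fluorescence up to the nicardipine level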
[22] = target: T6, ATP-dependent translocase ABCB1; assay: ABCG2 efflux pump inhibitor potency, dose response, Ig-MXP3 cells, JC-1, flow cytometry, set 2 (AID 504566); format: functional; conditions: read-out: EC50_MICROM_;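 also: flow cytometry median green fluorescence of retained JC-1 dye; potency of efflux pump inhibition measured as rising substrate retention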
[23] = target: Photoreceptor-specific nuclear receptor (Homo sapiens, UniProt Q9Y5X4); format: functional, cell-based;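 also: CHO-S cells with Gal4-NCOR and VP16-NR2E3 two-hybrid luciferase reporter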
Fatty acid synthase [24] = target: T7, Fatty acid synthase (Homo sapiens, UniProt P49327); assay: FAS thioesterase domain inhibitors, dose response, biochemical, kinetic fluorescence intensity (AID 624326); format: functional;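 also: rate of fluorescence rise from hydrolysis of a fluorogenic O-methyl fluorescein ester substrate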
Fatty acid synthase [25] = target: T7, Fatty acid synthase; assay: FAS thioesterase domain inhibitors, dose response, biochemical, endpoint fluorescence intensity, uHTS hits (AID 624327); format: functional;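 also: fluorescence from hydrolysis of an O-methyl fluorescein acyl ester substrate by the enzyme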
Beta Lactamase = Beta Lactamase (Pseudomonas aeruginosa, UniProt Q932Y6); assay: beta-lactamase reporter inhibitor potency, dose response, artefact control for NOD2-RIPK2 interaction inhibitor project, BLA reporter cells, FRET fluorescence (AID 651552); format: functional, cell-based
[26] = Fluorescence-based cell-based high throughput dose response assay for inhibitors of the interaction of nucleotide-binding oligomerization domain containing 2 (NOD2) and the receptor-interacting serine-threonine kinase 2 (RIPK2).; format: functional; conditions: Homo sapiens

T1 sequence (P10145 whole entry): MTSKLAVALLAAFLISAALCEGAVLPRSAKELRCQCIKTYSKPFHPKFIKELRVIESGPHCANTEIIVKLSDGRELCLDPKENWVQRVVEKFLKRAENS
T7 sequence (P49327 whole entry, the tested form may be a part): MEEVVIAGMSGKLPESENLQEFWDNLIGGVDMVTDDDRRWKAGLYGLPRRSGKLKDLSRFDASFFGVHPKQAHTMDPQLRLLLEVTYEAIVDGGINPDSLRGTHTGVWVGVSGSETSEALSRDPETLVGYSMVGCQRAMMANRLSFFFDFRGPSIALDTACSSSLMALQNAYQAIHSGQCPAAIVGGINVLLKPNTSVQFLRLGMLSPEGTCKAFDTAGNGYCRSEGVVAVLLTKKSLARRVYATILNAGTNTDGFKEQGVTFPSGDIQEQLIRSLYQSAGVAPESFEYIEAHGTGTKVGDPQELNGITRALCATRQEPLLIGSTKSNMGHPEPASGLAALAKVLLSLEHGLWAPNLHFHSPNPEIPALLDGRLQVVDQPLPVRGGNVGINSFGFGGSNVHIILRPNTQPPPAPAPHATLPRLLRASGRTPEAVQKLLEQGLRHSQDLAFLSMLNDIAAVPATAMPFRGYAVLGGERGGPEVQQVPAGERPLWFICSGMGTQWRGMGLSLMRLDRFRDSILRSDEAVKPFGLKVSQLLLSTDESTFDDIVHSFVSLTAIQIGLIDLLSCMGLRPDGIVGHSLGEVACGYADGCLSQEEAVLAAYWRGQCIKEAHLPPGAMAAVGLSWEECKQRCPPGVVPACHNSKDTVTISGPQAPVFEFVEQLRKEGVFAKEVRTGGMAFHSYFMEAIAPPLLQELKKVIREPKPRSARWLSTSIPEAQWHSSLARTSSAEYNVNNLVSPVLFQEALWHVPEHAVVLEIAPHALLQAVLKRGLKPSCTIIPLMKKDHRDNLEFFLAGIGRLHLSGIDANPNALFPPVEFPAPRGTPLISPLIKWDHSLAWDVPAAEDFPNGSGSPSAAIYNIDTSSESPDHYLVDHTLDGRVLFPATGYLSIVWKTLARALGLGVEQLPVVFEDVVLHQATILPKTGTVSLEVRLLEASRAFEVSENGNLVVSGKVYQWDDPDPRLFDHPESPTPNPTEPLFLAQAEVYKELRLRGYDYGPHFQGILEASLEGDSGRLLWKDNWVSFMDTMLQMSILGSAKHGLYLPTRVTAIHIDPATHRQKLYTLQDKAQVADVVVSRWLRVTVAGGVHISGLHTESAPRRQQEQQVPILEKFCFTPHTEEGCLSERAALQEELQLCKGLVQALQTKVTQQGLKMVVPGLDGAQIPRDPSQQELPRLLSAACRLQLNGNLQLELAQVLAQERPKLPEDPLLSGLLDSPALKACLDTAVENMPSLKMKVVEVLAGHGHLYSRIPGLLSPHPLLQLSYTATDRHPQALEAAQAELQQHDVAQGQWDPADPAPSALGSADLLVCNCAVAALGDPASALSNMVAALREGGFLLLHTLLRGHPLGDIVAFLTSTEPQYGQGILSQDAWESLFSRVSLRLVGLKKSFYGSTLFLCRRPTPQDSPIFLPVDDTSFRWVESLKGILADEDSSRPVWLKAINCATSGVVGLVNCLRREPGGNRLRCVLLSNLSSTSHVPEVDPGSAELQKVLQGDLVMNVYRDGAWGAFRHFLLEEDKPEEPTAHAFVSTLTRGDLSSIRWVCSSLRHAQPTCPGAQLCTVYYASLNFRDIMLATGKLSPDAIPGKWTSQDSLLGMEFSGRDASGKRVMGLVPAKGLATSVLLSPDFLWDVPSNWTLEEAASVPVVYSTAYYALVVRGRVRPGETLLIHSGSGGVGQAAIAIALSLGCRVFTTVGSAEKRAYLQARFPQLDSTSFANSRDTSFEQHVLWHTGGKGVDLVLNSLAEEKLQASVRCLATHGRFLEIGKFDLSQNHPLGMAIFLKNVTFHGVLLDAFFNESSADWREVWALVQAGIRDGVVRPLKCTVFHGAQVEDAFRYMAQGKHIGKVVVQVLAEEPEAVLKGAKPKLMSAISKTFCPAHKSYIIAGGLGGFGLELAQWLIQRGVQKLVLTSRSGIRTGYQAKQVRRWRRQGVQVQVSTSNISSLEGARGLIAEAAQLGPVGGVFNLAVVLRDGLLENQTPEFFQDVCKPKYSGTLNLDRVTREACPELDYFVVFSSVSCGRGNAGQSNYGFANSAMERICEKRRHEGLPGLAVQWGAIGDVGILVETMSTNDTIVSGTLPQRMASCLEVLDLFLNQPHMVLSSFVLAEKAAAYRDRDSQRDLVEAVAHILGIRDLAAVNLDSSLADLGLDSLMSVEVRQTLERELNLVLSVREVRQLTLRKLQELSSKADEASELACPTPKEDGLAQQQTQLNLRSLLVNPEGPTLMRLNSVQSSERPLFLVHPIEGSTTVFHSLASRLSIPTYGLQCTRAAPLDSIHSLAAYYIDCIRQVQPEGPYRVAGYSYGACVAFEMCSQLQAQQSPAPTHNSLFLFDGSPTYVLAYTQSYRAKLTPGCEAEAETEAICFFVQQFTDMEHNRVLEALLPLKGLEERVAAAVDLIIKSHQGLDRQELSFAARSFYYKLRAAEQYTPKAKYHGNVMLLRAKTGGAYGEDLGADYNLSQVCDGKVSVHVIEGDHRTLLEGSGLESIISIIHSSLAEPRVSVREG
T6 sequence (P08183 whole entry): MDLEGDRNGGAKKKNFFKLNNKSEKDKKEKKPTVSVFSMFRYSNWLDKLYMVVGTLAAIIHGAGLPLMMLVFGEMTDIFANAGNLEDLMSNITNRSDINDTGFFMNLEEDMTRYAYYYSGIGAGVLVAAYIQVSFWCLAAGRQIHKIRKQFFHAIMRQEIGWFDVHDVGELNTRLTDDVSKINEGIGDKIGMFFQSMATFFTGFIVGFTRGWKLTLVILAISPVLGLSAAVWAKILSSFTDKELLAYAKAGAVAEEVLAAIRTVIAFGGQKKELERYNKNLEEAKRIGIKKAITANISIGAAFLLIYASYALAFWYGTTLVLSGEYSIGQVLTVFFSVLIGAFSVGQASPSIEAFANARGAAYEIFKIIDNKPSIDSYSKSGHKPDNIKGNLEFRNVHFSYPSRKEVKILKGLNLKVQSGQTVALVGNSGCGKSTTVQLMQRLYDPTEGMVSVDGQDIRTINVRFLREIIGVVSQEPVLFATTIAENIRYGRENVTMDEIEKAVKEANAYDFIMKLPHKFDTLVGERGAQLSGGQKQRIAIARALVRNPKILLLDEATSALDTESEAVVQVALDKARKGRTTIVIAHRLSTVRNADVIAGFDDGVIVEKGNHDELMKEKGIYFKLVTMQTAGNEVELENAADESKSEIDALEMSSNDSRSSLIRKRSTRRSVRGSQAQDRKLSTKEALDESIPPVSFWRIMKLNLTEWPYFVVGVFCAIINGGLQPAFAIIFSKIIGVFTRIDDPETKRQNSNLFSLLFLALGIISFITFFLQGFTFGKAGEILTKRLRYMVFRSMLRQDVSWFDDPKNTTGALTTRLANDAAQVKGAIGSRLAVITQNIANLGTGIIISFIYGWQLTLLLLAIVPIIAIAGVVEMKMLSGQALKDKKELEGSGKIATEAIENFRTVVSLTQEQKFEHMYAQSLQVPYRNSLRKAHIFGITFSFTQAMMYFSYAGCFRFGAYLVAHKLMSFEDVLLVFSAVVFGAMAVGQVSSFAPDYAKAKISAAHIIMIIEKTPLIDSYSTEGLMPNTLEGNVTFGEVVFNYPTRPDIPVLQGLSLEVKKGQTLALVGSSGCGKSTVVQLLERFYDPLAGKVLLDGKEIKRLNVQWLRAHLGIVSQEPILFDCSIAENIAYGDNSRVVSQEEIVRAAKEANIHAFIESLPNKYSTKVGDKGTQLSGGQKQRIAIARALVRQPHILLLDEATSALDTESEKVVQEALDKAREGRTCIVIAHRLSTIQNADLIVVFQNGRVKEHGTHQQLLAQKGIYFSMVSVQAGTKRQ
T4 sequence (Q9P0U3 whole entry, the tested form may be a part): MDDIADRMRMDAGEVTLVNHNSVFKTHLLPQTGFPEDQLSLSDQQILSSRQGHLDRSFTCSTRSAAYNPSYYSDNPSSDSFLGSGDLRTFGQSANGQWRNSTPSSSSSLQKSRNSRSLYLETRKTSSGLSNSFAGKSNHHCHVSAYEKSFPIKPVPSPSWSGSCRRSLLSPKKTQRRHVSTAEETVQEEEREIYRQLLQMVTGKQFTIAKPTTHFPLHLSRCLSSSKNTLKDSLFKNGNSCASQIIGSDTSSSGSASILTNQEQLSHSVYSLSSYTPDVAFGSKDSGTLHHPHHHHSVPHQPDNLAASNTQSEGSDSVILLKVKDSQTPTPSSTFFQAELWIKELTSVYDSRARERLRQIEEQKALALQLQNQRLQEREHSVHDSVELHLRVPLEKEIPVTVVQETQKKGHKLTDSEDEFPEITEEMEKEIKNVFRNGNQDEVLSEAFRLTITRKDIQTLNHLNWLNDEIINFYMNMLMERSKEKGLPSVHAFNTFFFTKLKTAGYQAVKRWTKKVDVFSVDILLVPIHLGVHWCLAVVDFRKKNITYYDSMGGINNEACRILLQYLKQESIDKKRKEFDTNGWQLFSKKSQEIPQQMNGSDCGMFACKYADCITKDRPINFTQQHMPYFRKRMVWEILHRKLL
Melanocortin receptor 4, sequence (P32245 whole entry): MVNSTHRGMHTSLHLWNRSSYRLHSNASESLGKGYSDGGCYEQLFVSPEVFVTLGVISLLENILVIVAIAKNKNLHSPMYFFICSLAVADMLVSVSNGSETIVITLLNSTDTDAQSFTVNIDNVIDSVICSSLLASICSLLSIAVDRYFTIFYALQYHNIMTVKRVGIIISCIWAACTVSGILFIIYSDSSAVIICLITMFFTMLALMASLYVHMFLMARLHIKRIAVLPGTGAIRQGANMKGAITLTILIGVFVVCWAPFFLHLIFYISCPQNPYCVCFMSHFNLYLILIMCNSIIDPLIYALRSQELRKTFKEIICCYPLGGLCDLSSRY
Mitochondrial peptide methionine sulfoxide reductase, sequence (P54149 whole entry, the tested form may be a part): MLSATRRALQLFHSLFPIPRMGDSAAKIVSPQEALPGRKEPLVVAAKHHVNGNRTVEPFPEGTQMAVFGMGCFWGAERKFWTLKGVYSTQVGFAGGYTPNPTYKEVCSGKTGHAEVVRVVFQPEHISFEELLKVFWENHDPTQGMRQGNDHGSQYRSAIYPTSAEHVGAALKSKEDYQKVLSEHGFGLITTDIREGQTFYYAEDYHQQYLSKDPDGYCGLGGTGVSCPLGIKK

SMILES: COc1ccccc1-c1nnc(NC(=O)c2cccc(N3C(=O)CCC3=O)c2)o1
- AC50 [1]: 133 µM (active)

SMILES: COC(=O)N1C(=O)[C@@](c2ccccc2)(C(C)C)N1C(=O)OC
- IC50 (Interleukin-8 [2]): 2.15 µM (active)
- IC50 (Interleukin-8 [3]): 1.82 µM (active)

SMILES: NC1=NC[C@H](Cc2ccccc2)N1CCCCC1CCCCC1
- EC50 [4]: > 160 µM (inactive)
- EC50 [5]: 2.37 µM (active)
- EC50 [6]: 34.7 µM (active)
- IC50 (cells): 23.6 µM (active)
- AC50 (INS1): 5.54 µM (active)
- IC50 [7]: > 20 µM (inactive)
- CC50 [8]: 7.59 µM (active)

SMILES: CN1CCCC1CCOC(C)(c1ccccc1)c1ccc(Cl)cc1 (stereo unspecified)
- AC50 [9]: 10.6 µM (active)

SMILES: Cc1ccc(NS(=O)(=O)c2ccc3c(c2)C(=O)c2ccccc2C3=O)c(C)c1
- IC50 (HEK293 [10]): > 20 µM (inactive)
- EC50 [11]: > 20 µM (inactive)
- EC50 (HEK293 [12]): 6.34 µM (active)
- IC50 (HEK293 [13]): > 20 µM (inactive)
- IC50 (HEK293 [14]): 6.68 µM (active)
- IC50 (HEK293 [15]): 7.68 µM (active)
- EC50 [16]: > 104 µM (inactive)

SMILES: COc1ccc2c(c1)c1nc3ccccc3nc1n2Cc1ccc(OC(C)C)c(OC)c1
- IC50 [17]: 34.7 µM (inactive)
- IC50 [18]: 24.4 µM (inactive)

SMILES: CC(C)(C)[C@H]1COC(=O)[C@H](NC(=O)OCC2c3ccccc3-c3ccccc32)C/C=C\C[C@@H](CC(=O)N[C@@H](CO)Cc2ccccc2)C(=O)N1
- IC50 (Protein Wnt-3a): 18.6 µM (active)

SMILES: NC(Cc1ccc(C(F)(F)F)cc1)c1csc(Nc2ccc(C(=O)NCc3ccco3)cn2)n1 (stereo unspecified)
- EC50 [19]: > 7.173 µM
- EC50 (Melanocortin receptor 4): > 9.91 µM (active)

SMILES: COc1ccc(Cl)cc1NC(=O)CCS(=O)(=O)c1cc2c(cc1Br)CCN2C(C)=O
- EC50 [20]: > 100 µM (inactive)

SMILES: CC(=O)N1CCN(c2c(C)c(C)nc3cc(-c4cccc(F)c4)nn23)CC1
- EC50 [21]: 5.95 µM (inactive)
- EC50 [22]: 4.22 µM (active)

SMILES: CCOC(=O)[C@]12Cc3cc(C)ccc3[C@H]1N(C1CCCCC1)C(=O)c1cc(OC)ccc12
- IC50 [23]: 4.3 µM (active)
- IC50 (Fatty acid synthase [24]): 6.32 µM (active)
- IC50 (Fatty acid synthase [25]): 5.45 µM (active)
- IC50 (Beta Lactamase): 19.3 µM (inactive)
- IC50 [26]: 1.62 µM (active)
